According to patent publication US8257749B2, “Systems providing at least pesticidal activity” (Biolargo Life Technologies, Incorporated, priority 2007, dated 2012):

How the values were obtained:
enterococci [1] = assay: longer term experiment, sand dosed with pure culture of enterococci and imbibed with iodine solution; type: cell-based
Method: (§1) In a first experiment, a natural sample from Santa Monica beach was user. This soil sample was taken from an area close to a storm drain. Concentrations started at 1100 MPN enterococci per 100 gram sediment were used. Wash samples having a concentration of greater than 10 parts per million were used on the soil samples. Enterocci concentrations approached zero for all of five consecutive washes. A longer term experiment was then performed with sand dosed with a pure culture of enterococci, the >10 ppm iodine solution imbibed in the soil, and then autoclaving. The bacterial level started at 1050 MPN/100 g, and went to zero immediately upon treatment. This was clearly evidenced in five washes (all zero). Two samples were treated with >10 ppm iodine solutions and left to sit on the roof for several days. The bacterial levels were approximately zero at the end of the experiment. Samples that were imbibed with the >10 ppm solution and the sand raked, had bacterial levels that decreased in concentration during the days, and rebounded at night for two nights, and then ended up at zero, indicating effectiveness of the solution, and a benefit to combination of the solution with heat and/or light. The undisturbed controls in both dark and light ended up with countable bacteria at the end.
In a first experiment showing the efficacy of the iodine treatment on bacteria in soil, a natural sample from Santa Monica beach was user. This soil sample was taken from an area close to a storm drain. Concentrations started at 1100 MPN enterococci per 100 gram sediment were used. Wash samples having a concentration of greater than 10 parts per million were used on the soil samples. Enterocci concentrations approached zero for all of five consecutive washes. A longer term experiment was then performed with sand dosed with a pure culture of enterococci, the >10 ppm iodine solution imbibed in the soil, and then autoclaving. The bacterial level started at 1050 MPN/100 g, and went to zero immediately upon treatment. This was clearly evidenced in five washes (all zero). […]

enterococci [2] = assay: iodine wash of natural Santa Monica beach soil sample; type: cell-based; conditions: started at 1100 MPN, wash samples greater than 10 parts per million, all of five consecutive washes
Method: as §1, with “end. […]” for “end.”

`II` [iodine solution, molecular iodine] was tested, and the “bacterial levels at end, imbibed and raked sand” value (enterococci [1]; >10 ppm solution, sand raked, decreased during the days, rebounded at night for two nights) was “zero”, the “bacterial level immediately upon treatment” value (enterococci [1]; sand dosed with pure culture, started at 1050 MPN/100 g, >10 ppm iodine solution imbibed, five washes (all zero)) was “zero” and the “bacterial levels at the end of the experiment” value (enterococci [1]; two samples treated with >10 ppm iodine solutions, left to sit on the roof for several days) was “approximately zero”. The “Enterocci concentrations after wash” value (enterococci [2]) was “approximately zero”.
